Measurements from ChEMBL document CHEMBL1201862, “PubChem BioAssay data set” (2004).
Calls of active or inactive are those of the source.

Legend:
BJ [1] = assay: BJ-TERT-LT-ST fibroblast viability loss – cell-based, RAS-independent, luminescence, dose response (AID 1935); type: functional; details: Homo sapiens;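 also: BJ fibroblasts immortalized with TERT plus LT and ST oncogenes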
[2] = DRD fibroblast viability loss – cell-based, non-viral oncogenic, luminescence, dose response (AID 1934); type: functional; details: Homo sapiens
Melanocortin receptor 4 = Melanocortin receptor 4 (Homo sapiens, UniProt P32245); type: functional, cell-based;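 also: Cell-based assay with luminescence read-out, confirmatory dose-response testing for agonist activity of biased ligands at MC4R; human U2OS cells with tagged receptor and beta-arrestin; potency of agonists that increase receptor coupling to beta-arrestin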
BJ [3] = assay: growth inhibition of engineered Ras-driven BJ cells – cell-based, alamar blue fluorescence, cherrypicked samples, dose response (AID 2631); type: functional; details: Homo sapiens;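 also: confirmatory dose-response assay in RAS-dependent BJ fibroblasts engineered with TERT, LT and ST, with cytotoxicity read by fluorescence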
[4] = Luminescence Cell-Based Dose Retest to Confirm Inhibitors of Cancer Stem Cells. [Related pubchem assays (depositor defined):AID2717, AID2721]; type: functional; details: Homo sapiens
BJ [5] = assay: cells; type: functional, cell-based; details: Homo sapiens
BJ [6] = assay: BJ-TERT fibroblast viability loss – cell-based, RAS-independent, luminescence, dose response (AID 1933); type: functional; details: Homo sapiens
Protein Wnt-3a = Protein Wnt-3a (Mus musculus, UniProt P27467); assay: antagonism of Wnt3a pathway luciferase reporter – Wnt-LIGHT cells, luminescence, selectivity assay for Gli-SUFU antagonist project, dose response (AID 651570); type: functional; details: read-out: IC50_Mean;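 also: Wnt-LIGHT reporter cells stimulated with conditioned medium from Wnt3a-producing cells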
INS1 = assay: INS-1E survival protection against cytokine death – cell-based, luminescence, retest, dose response (AID 449756); type: functional; details: Rattus norvegicus;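 also: cell death triggered by IL-1 beta plus TNF-alpha plus IFN-gamma mixture; protective hits raise ATP signal compared with cytokine alone wells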
[7] = blockers of CRF-binding protein–CRF-R2 complex – cell-based, uHTS hits, 384-well, dose response (AID 651639); type: functional, Homo sapiens; details: read-out: IC50_Mean
[8] = target: T1, Corticotropin-releasing factor receptor 2/Corticotropin-releasing factor-binding protein (Homo sapiens, UniProt P24387+Q13324); assay: Dose Response confirmation of uHTS hits for small molecule antagonists of the CRF-binding protein and CRF-R2 receptor complex.; type: functional; details: read-out: IC50_Mean
T1 sequence (Q13324 whole entry): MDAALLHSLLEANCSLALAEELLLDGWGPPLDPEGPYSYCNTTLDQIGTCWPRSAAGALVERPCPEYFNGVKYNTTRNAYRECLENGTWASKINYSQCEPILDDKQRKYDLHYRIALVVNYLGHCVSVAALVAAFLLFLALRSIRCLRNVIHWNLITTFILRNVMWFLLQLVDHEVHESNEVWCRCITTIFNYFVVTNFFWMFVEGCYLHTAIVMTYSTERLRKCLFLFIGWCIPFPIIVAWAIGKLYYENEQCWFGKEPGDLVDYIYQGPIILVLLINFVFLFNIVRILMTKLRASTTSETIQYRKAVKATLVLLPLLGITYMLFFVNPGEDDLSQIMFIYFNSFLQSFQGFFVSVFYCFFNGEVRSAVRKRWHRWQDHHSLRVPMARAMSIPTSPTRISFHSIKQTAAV
T1 sequence (P24387 whole entry): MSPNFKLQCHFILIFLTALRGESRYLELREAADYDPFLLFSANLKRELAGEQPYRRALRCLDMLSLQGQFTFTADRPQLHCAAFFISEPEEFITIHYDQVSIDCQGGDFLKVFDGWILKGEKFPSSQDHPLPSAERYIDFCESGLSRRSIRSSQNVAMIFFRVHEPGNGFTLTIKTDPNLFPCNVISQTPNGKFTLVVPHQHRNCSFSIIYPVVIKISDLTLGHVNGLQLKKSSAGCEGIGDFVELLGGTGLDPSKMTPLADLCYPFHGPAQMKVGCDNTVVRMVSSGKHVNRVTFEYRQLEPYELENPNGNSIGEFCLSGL

[9] = target: T1, Corticotropin-releasing factor receptor 2/Corticotropin-releasing factor-binding protein; assay: activators of CRF receptor 2 with binding protein – uHTS hits, confirmation (AID 602473); type: functional; details: read-out: EC50_Mean
[10] = target: T2, Calpain-2 catalytic subunit (Sus scrofa, UniProt P43367); assay: m-calpain protease blockers, concentration series – biochemical, fluorogenic peptide substrate, dose response (AID 1420); type: functional
T2 sequence (P43367 whole entry): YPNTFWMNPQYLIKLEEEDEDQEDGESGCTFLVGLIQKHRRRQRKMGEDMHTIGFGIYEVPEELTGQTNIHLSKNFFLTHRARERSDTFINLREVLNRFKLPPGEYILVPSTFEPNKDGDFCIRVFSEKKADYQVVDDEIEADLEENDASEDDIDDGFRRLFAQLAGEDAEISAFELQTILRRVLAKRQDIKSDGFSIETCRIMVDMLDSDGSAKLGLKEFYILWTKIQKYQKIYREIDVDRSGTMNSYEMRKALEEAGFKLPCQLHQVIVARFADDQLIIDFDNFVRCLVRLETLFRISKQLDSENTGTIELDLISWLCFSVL

[11] = loss of viability in HepG2 cells – cell-based, CellTiter-Glo, cherry-picked, cytotoxicity control for Shn3 inhibitor project, dose response (AID 624134); type: functional
[12] = non-specific 3'UTR reporter inhibition in Clone20-Shn3RL – cell-based, Renilla luciferase, cherry-picked, counter-screen for Shn3 inhibitor project, dose response (AID 624133); type: functional
[13] = reduction of Shn3 3'UTR-driven luciferase in osteoblasts – cell-based, Clone20 osteoblasts, firefly luciferase, cherry-picked, dose response (AID 624132); type: functional;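 also: firefly luciferase luminescence from reporter carrying the Shn3 3'UTR in osteoblasts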
[14] = target: FAD-linked sulfhydryl oxidase ALR (Homo sapiens, UniProt P55789); assay: ALR-catalysed DTT oxidation blockers – biochemical, H2O2 detection, luminescence, cherry-pick, dose response (AID 493248)
Large T antigen = Large T antigen (Simian virus 40, UniProt P03070); type: functional, Betapolyomavirus macacae;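 also: Confirmatory-stage PubChem screen for compounds that inhibit SV40 T antigen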
Paired box protein Pax-8 = Paired box protein Pax-8 (Homo sapiens, UniProt Q06710); assay: PAX8 transcriptional activity inhibition in RMG-I – RMG-I cells, luciferase, cherry-pick, dose response (AID 687027); type: functional, cell-based;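 also: luciferase reporter driven by Pax8 target thyroperoxidase promoter measured by SteadyGlo luminescence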
[15] = target: T3, Sentrin-specific protease 7 (Homo sapiens, UniProt Q9BQF6); type: functional;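 also: Luminescence-based dose-response confirmation of ultra-high-throughput screening hits, measuring inhibition of SENP7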
T3 sequence (Q9BQF6 whole entry): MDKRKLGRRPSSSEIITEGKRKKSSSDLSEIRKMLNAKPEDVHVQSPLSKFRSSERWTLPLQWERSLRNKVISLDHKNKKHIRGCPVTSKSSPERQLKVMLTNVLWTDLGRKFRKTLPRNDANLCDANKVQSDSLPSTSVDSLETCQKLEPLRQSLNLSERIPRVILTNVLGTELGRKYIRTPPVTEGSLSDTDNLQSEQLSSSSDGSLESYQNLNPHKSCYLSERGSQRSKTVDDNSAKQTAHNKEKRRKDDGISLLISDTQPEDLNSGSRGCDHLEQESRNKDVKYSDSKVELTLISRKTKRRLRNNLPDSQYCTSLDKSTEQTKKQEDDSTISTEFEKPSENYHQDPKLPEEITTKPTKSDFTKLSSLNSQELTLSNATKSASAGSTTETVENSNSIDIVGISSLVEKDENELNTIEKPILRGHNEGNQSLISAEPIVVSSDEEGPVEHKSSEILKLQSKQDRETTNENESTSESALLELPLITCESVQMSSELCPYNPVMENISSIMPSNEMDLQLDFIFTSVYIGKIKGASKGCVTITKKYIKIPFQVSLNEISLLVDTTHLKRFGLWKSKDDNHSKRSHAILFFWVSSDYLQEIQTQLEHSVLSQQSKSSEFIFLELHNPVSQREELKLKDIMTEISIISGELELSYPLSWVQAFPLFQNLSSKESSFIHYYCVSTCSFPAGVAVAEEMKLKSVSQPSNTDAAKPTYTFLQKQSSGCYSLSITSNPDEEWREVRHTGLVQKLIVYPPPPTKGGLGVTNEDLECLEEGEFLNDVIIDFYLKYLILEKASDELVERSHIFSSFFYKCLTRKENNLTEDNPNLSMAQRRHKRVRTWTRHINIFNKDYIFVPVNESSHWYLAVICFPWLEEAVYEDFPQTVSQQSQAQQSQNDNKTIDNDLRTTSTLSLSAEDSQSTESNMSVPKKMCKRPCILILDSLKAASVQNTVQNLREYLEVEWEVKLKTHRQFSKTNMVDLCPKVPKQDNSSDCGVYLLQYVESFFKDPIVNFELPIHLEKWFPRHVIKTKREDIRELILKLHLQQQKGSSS

[16] = system: Streptococcus sp. 'group A'; assay: Streptococcus pyogenes SK(-)GAS viability under kanamycin – luminescence, BacTiterGlo, confirmation, counter-screen for streptokinase expression inhibitor project, dose response (AID 1900); type: functional, organism-based
Streptococcus = assay: GAS UMAA2166 growth inhibition – luminescence, BacTiterGlo, counter-screen for streptokinase expression inhibitor project, dose response (AID 1915); type: functional, organism-based;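 also: potency for reduction of bacterial viability or growth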
[17] = target: T4, Sentrin-specific protease 6 (Homo sapiens, UniProt Q9GZR1); type: functional;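 also: Luminescence-based dose-response confirmatory assay of SENP6 inhibition, following up an ultra-high-throughput screen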
T4 sequence (Q9GZR1 whole entry): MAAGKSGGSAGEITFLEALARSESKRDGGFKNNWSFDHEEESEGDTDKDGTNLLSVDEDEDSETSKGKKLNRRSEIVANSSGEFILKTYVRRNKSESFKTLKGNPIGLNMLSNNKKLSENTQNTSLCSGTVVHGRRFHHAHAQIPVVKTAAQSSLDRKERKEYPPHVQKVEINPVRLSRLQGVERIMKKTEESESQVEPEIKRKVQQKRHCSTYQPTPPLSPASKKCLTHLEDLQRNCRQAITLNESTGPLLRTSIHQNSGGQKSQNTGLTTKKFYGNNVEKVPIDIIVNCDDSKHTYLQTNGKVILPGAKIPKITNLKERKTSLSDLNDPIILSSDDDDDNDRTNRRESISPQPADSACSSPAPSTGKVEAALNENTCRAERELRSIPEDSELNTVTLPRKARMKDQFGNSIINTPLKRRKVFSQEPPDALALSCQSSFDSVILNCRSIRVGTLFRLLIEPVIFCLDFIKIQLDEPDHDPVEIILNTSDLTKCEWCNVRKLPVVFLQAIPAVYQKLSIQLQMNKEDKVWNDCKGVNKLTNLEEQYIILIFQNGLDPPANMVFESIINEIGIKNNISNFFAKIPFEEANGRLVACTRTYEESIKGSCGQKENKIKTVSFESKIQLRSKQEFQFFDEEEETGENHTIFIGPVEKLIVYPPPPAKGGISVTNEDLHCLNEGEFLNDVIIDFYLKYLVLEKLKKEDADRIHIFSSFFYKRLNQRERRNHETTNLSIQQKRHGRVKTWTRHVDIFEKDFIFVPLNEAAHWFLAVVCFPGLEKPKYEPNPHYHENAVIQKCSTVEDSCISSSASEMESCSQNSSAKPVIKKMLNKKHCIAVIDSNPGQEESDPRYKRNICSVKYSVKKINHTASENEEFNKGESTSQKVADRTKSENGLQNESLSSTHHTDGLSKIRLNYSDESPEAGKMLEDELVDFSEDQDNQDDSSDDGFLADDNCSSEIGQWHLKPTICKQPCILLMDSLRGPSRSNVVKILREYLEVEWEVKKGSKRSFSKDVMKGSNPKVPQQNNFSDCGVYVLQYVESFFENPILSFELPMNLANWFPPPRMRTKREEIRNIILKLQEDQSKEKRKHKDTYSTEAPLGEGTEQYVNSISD

Caspase-3 = target: T5, Caspase-3 (Homo sapiens, UniProt P42574); type: functional;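 also: Dose-response selectivity test against caspase-3 for candidate inhibitors of sentrin-specific proteases (SENPs)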
T5 sequence (P42574 whole entry): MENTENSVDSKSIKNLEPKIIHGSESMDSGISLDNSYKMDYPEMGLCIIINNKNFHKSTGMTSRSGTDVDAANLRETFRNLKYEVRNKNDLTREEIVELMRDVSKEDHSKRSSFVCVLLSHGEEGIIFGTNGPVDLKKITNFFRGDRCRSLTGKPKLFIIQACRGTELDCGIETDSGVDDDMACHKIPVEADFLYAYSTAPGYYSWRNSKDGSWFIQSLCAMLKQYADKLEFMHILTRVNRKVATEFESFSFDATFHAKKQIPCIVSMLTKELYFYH

[18] = target: T6, Sentrin-specific protease 8 (Homo sapiens, UniProt Q96LD8); type: functional;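 also: luminescence read-out of SENP8 inhibition, dose-response confirmation following an ultra-high-throughput screen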
T6 sequence (Q96LD8 whole entry): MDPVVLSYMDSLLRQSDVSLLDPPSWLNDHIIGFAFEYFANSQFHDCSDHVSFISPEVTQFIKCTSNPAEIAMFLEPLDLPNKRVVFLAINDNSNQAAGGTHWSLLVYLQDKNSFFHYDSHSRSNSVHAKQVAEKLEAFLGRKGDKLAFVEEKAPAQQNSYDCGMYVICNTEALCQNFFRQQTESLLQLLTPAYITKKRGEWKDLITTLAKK

Sequence of Protein Wnt-3a (P27467 whole entry): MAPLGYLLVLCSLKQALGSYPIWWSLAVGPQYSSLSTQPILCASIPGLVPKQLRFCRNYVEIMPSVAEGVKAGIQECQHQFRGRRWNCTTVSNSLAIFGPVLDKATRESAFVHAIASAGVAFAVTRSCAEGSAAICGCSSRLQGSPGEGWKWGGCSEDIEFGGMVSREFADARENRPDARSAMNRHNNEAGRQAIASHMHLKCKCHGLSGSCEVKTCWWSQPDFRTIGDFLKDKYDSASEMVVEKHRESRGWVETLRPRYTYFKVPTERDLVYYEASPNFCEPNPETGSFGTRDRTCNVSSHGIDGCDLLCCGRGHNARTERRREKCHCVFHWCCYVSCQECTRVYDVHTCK
Sequence of Melanocortin receptor 4 (P32245 whole entry): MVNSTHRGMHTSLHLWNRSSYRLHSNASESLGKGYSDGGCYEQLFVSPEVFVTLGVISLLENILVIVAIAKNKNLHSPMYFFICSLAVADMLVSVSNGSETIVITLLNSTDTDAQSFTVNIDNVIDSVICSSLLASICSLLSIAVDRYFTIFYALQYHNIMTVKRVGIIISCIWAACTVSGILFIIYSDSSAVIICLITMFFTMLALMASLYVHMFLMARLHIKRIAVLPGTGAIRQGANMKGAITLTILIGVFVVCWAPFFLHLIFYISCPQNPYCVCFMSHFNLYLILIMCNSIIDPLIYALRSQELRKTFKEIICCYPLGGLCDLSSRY
Sequence of Paired box protein Pax-8 (Q06710 whole entry): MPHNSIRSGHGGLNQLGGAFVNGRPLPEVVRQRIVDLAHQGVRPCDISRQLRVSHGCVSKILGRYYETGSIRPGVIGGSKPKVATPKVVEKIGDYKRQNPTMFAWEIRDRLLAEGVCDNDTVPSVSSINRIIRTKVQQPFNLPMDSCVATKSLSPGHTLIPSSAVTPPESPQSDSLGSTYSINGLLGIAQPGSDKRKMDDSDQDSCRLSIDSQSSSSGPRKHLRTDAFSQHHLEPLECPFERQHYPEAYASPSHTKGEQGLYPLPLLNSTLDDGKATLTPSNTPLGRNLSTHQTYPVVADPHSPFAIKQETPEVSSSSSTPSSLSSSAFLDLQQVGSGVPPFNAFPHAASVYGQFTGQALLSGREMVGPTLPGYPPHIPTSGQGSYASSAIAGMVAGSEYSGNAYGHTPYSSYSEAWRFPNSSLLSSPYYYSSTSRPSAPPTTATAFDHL
Sequence of Large T antigen (P03070 whole entry): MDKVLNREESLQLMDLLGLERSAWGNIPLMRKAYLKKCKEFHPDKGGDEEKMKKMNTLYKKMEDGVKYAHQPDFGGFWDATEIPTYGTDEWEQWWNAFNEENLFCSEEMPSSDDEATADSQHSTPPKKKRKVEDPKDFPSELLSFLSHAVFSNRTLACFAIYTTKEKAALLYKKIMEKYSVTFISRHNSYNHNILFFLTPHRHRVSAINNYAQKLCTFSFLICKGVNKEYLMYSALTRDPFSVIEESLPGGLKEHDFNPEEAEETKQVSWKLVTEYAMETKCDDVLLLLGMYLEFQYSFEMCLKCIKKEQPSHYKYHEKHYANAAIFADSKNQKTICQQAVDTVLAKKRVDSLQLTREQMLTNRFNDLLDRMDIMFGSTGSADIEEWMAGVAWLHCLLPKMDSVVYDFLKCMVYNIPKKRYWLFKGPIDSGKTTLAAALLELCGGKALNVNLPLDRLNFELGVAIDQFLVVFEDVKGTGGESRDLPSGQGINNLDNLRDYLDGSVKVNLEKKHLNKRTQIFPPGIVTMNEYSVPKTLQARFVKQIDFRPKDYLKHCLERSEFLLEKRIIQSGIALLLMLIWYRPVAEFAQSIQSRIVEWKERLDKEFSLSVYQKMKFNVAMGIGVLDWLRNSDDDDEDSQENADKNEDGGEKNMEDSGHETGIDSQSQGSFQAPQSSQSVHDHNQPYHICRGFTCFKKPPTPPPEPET
Sequence of FAD-linked sulfhydryl oxidase ALR (P55789 whole entry): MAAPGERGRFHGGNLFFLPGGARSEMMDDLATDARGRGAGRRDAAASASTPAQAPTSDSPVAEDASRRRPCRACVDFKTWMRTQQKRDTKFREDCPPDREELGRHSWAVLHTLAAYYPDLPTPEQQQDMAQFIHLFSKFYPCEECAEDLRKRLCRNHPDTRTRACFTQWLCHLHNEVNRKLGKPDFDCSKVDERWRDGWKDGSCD

CCc1ccc(CCC(=O)Nc2ncc(Cc3ccccc3Cl)s2)o1
EC50 (BJ [1]): 2.83 µM (active)
EC50 [2]: 3.72 µM (active)
EC50 (Melanocortin receptor 4): > 89.2 µM (inactive)
EC50 (BJ [3]): 1.83 µM (active)
AC50 [4]: 184 nM (active)
EC50 (BJ [5]): 14 µM (active)
EC50 (BJ [6]): 2.76 µM (active)

CCCCCn1c(=N)n(CC(O)COc2ccccc2OC)c2ccccc21 (configuration not stated)
IC50 (Protein Wnt-3a): 8.95 µM (active)

CCOc1ccc(OCc2ccc(C(=O)NN=Cc3ccc[nH]3)cc2)cc1
IC50 (Protein Wnt-3a): 5.48 µM (active)
AC50 (INS1): 372 nM (active)

Cc1ccc(Cl)cc1N1CCN(C(=O)Cc2c(C(=O)O)[nH]c3ccccc23)CC1
IC50 [7]: > 20 µM (inactive)
IC50 [8]: 33.5 µM (active)
EC50 [9]: > 53 µM (inactive)

CC(C)(C)NC(=O)NC(=O)CN1CCN(c2ccc(O)cc2)CC1
IC50 [10]: 19.1 µM (not active)
AC50 [11]: 67.2 µM (active)
AC50 [12]: 5.88 µM (active)
AC50 [13]: 1.9 µM (active)
AC50 [14]: 4.04 µM (active)
IC50 (Large T antigen): 21.2 µM (active)

Clc1ccc(-c2c[n+](-c3ccc(Cl)cc3)c3n2CCCCC3)cc1
IC50 (Protein Wnt-3a): 26.4 µM (inactive)

CCC(C)C1NC(=O)C(NC(=O)C(CC(C)C)N(C)C(=O)C2CCCN2C(=O)C(C)O)C(C)OC(=O)C(Cc2ccc(OC)cc2)N(C)C(=O)C2CCCN2C(=O)C(CC(C)C)NC(=O)[C@H](C)C(=O)[C@H](C(C)C)OC(=O)CC1O (some centres not stated)
AC50 [11]: > 70 µM (inactive)
AC50 [12]: < 0.26 µM (active)
AC50 [13]: < 0.26 µM (active)
AC50 (Paired box protein Pax-8): < 260 nM (active)

c1ccc(CNc2c(-c3cccc(SC4CCCCC4)c3)nc3ccccn23)cc1
AC50 [11]: > 70 µM (inactive)
AC50 [4]: 5290 nM (active)
AC50 [12]: 6.09 µM (active)
AC50 [13]: 3.46 µM (active)
AC50 (INS1): 5060 nM (active)

COc1cc(O)c(CC=C(C)C)c(O)c1C(=O)CCc1ccc(O)cc1 [DIHYDROXANTHOHUMOL]
IC50 [15]: 7.82 µM (active)
EC50 [16]: 2.79 µM (active)
IC50 [10]: 5 µM (not active)
EC50 (Streptococcus): 3.05 µM (active)
EC50 (Melanocortin receptor 4): > 89.2 µM (inactive)
IC50 [17]: 10 µM (active)
IC50 (Caspase-3): > 100 µM (inactive)
IC50 [18]: 13.3 µM (active)
